Data reported in patent publication US20100240630A1, “COMPOUNDS AND THERAPEUTIC USES THEREOF” (Myriad Pharmaceuticals, Inc.., priority 2007, published 2010).
pEC50: −log10 of the molar value.

Test system: HIV-1 laboratory strain, NL4-3
Assay: MT-4 cytoprotection assay (WST-1 readout)
Assay type: cell-based
Settings: Human immunodeficiency virus 1, NL43, MT4, 96 h; MT-4 cells infected with HIV-1 NL4-3, MOI 0.0005, four days incubation; read-out: EC50, antiviral activity in the MT4 assay (most active compounds)
Method: The compounds of the invention can be tested in the following MT-4 assay to detect antiviral activity.
The HTLV-1 transformed T cell line, MT-4, is highly susceptible to HIV-1 infection. Anti-HIV-1 agents were evaluated in this target cell line by protection from the HIV-induced cytopathic effect. In this assay, viability of both HIV-1 and mock-infected cells was assessed in a colorimetric assay that monitors the ability of metabolically-active cells to reduce the tetrazolium salt WST-1. Cytoprotection by antiviral compounds is indicated by the positive readout of increased WST-1 cleavage.
Briefly, exponentially growing MT-4 cells were mock-infected or batch-infected with the HIV-1 laboratory strain, NL4-3, at a multiplicity of infection of 0.0005. Following a two hour infection, the cells were washed to remove unbound virus and plated in the presence of increasing concentrations of compound. After four days incubation, cytoprotection in the infected cells and compound toxicity in mock-infected cells were analyzed using the WST-1 assay.

Compound	pEC50
C=C(C)[C@@H]1CC[C@]2(C#CC3=C(C(=O)O)CN(C(=O)OC(C)(C)C)CC3)CC[C@]3(C)C(CCC4[C@@]5(C)CC[C@H](OC(=O)CC(C)(C)C(=O)O)C(C)(C)C5CC[C@]43C)C12 (some centres unmarked) [Compound 42]	≥ 7.00
C=C(C)[C@@H]1CC[C@]2(C#Cc3ccncc3C(=O)O)CC[C@]3(C)C(CCC4[C@@]5(C)CC[C@H](OC(=O)CC(C)(C)C(=O)O)C(C)(C)C5CC[C@]43C)C12 (some centres unmarked) [Compound 54]	≥ 7.00
C=C(C)[C@@H]1CC[C@]2(C#Cc3ccccc3S(C)(=O)=O)CC[C@]3(C)C(CCC4[C@@]5(C)CC[C@H](OC(=O)CC(C)(C)C(=O)O)C(C)(C)C5CC[C@]43C)C12 (some centres unmarked) [Compound 32]	≥ 7.00
C=C(C)[C@@H]1CC[C@]2(C#Cc3cccc(Cl)c3C(=O)O)CC[C@]3(C)C(CCC4[C@@]5(C)CC[C@H](OC(=O)CC(C)(C)C(=O)O)C(C)(C)C5CC[C@]43C)C12 (some centres unmarked) [Compound 51]	≥ 7.00
C=C(C)[C@@H]1CC[C@]2(C#Cc3cccc(F)c3C(=O)O)CC[C@]3(C)C(CCC4[C@@]5(C)CC[C@H](OC(=O)CC(C)(C)C(=O)O)C(C)(C)C5CC[C@]43C)C12 (some centres unmarked) [Compound 20]	≥ 7.00
C=C(C)[C@@H]1CC[C@]2(CCc3ccccc3C(=O)O)CC[C@]3(C)C(CCC4[C@@]5(C)CC[C@H](OC(=O)CC(C)(C)C(=O)O)C(C)(C)C5CC[C@]43C)C12 (some centres unmarked) [Compound 28]	≥ 7.00
C=C(C)[C@@H]1CC[C@]2(C#Cc3ccccc3C(N)=O)CC[C@]3(C)C(CCC4[C@@]5(C)CC[C@H](OC(=O)CC(C)(C)C(=O)O)C(C)(C)C5CC[C@]43C)C12 (some centres unmarked) [Compound 27]	≥ 7.00
C=C(C)[C@@H]1CC[C@]2(C#Cc3cc(F)ccc3C(=O)O)CC[C@]3(C)C(CCC4[C@@]5(C)CC[C@H](OC(=O)CC(C)(C)C(=O)O)C(C)(C)C5CC[C@]43C)C12 (some centres unmarked) [Compound 13]	≥ 7.00
C=C(C)[C@@H]1CC[C@]2(C#Cc3ccccc3C(=O)NS(C)(=O)=O)CC[C@]3(C)C(CCC4[C@@]5(C)CC[C@H](OC(=O)CC(C)(C)C(=O)O)C(C)(C)C5CC[C@]43C)C12 (some centres unmarked) [Compound 55]	≥ 7.00
C=C(C)[C@@H]1CC[C@]2(C#CC3=C(C(=O)O)CNCC3)CC[C@]3(C)C(CCC4[C@@]5(C)CC[C@H](OC(=O)CC(C)(C)C(=O)O)C(C)(C)C5CC[C@]43C)C12 (some centres unmarked) [Compound 43]	≥ 7.00
C=C(C)[C@@H]1CC[C@]2(C#CC3=C(C(=O)O)CCCC3)CC[C@]3(C)C(CCC4[C@@]5(C)CC[C@H](OC(=O)CC(C)(C)C(=O)O)C(C)(C)C5CC[C@]43C)C12 (some centres unmarked) [Compound 45]	≥ 7.00
C=C(C)[C@@H]1CC[C@]2(C#Cc3ccc(F)cc3C(=O)O)CC[C@]3(C)C(CCC4[C@@]5(C)CC[C@H](OC(=O)CC(C)(C)C(=O)O)C(C)(C)C5CC[C@]43C)C12 (some centres unmarked) [Compound 21]	≥ 7.00
C=C(C)[C@@H]1CC[C@]2(C#Cc3sccc3C(=O)O)CC[C@]3(C)C(CCC4[C@@]5(C)CC[C@H](OC(=O)CC(C)(C)C(=O)O)C(C)(C)C5CC[C@]43C)C12 (some centres unmarked) [Compound 9]	≥ 7.00
C=C(C)[C@@H]1CC[C@]2(C#Cc3c(C)cccc3C(=O)O)CC[C@]3(C)C(CCC4[C@@]5(C)CC[C@H](OC(=O)CC(C)(C)C(=O)O)C(C)(C)C5CC[C@]43C)C12 (some centres unmarked) [Compound 22]	≥ 7.00
C=C(C)[C@@H]1CC[C@]2(C#Cc3ccccc3C(=O)N(C)C)CC[C@]3(C)C(CCC4[C@@]5(C)CC[C@H](OC(=O)CC(C)(C)C(=O)O)C(C)(C)C5CC[C@]43C)C12 (some centres unmarked) [Compound 30]	≥ 7.00
C=C(C)[C@@H]1CC[C@]2(C#CC3=C(C(=O)O)CCC3)CC[C@]3(C)C(CCC4[C@@]5(C)CC[C@H](OC(=O)CC(C)(C)C(=O)O)C(C)(C)C5CC[C@]43C)C12 (some centres unmarked) [Compound 41]	≥ 7.00
C=C(C)[C@@H]1CC[C@]2(C#Cc3ccccc3C(=O)O)CC[C@]3(C)C(CCC4[C@@]5(C)CC[C@H](OC(=O)CC(C)(C)C(=O)O)C(C)(C)C5CC[C@]43C)C12 (stereo partly drawn) [Compound 6, 2,2-Dimethyl-succinic acid 4-[(1R,5aR,5bR,9S,11aR)-3a-(2-carboxy-phenylethynyl)-1-isopropenyl-5a,5b,8,8,11a-pentamethyl-icosahydro-cyclopenta[a]chrysen-9-yl]ester]	≥ 7.00
C=C(C)[C@@H]1CC[C@]2(C#Cc3ccsc3C(=O)O)CC[C@]3(C)C(CCC4[C@@]5(C)CC[C@H](OC(=O)CC(C)(C)C(=O)O)C(C)(C)C5CC[C@]43C)C12 (some centres unmarked) [Compound 11]	≥ 7.00
C=C(C)[C@@H]1CC[C@]2(C#Cc3cc(Cl)ccc3C(=O)O)CC[C@]3(C)C(CCC4[C@@]5(C)CC[C@H](OC(=O)CC(C)(C)C(=O)O)C(C)(C)C5CC[C@]43C)C12 (some centres unmarked) [Compound 34]	≥ 7.00
C=C(C)[C@@H]1CC[C@]2(C#Cc3cc(C)ccc3C(=O)O)CC[C@]3(C)C(CCC4[C@@]5(C)CC[C@H](OC(=O)CC(C)(C)C(=O)O)C(C)(C)C5CC[C@]43C)C12 (some centres unmarked) [Compound 36]	≥ 7.00
C=C(C)[C@@H]1CC[C@]2(C#Cc3ccc(Cl)cc3C(=O)O)CC[C@]3(C)C(CCC4[C@@]5(C)CCC(OC(=O)CC(C)(C)C(=O)O)C(C)(C)C5CC[C@]43C)C12 (some centres unmarked) [Compound 35]	≥ 7.00
C=C(C)[C@@H]1CC[C@]2(C#Cc3ccc(OC)c(OC)c3C(=O)O)CC[C@]3(C)C(CCC4[C@@]5(C)CC[C@H](OC(=O)CC(C)(C)C(=O)O)C(C)(C)C5CC[C@]43C)C12 (some centres unmarked) [Compound 50]	≥ 7.00
C=C(C)[C@@H]1CC[C@]2(C#Cc3ccsc3-c3nnn[nH]3)CC[C@]3(C)C(CCC4[C@@]5(C)CC[C@H](OC(=O)CC(C)(C)C(=O)O)C(C)(C)C5CC[C@]43C)C12 (some centres unmarked) [Compound 18]	≥ 7.00
